{
  "source": "patent US10568827B2",
  "about": "“External dermal agent for reducing yellowish dullness” (Hayashibara Co., Ltd., priority 2015, dated 2020)",
  "target": "carbonyl BSA (Bos taurus, UniProt P02769)",
  "sequence (P02769 25-607)": "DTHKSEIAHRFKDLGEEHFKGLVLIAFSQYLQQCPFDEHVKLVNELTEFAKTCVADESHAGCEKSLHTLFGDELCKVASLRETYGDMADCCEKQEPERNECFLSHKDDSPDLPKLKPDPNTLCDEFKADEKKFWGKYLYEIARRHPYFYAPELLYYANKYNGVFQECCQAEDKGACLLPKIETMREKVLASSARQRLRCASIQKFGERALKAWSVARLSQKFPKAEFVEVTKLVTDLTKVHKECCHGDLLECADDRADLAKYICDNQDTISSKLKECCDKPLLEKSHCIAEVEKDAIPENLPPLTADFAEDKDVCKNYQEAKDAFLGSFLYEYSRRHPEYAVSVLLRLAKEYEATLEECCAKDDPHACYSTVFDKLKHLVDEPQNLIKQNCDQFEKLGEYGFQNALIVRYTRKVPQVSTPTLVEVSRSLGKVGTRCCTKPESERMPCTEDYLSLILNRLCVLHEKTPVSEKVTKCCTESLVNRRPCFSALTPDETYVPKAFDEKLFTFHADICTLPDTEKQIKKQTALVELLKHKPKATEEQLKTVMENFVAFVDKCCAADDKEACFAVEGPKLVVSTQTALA",
  "assay": "Carbonyl protein reduction test with carbonyl BSA model (OxyBlot dot blot)",
  "type": "biochemical, bovine",
  "settings": "for action of reducing carbonyl protein (carbonyl BSA): conclusion in words",
  "experimental": "A carbonyl protein, obtained by carbonylating bovine serum albumin (termed “BSA”, hereinafter), was prepared as a carbonyl protein model (termed “carbonyl BSA”, hereinafter) and used in this experiment.\nIn phosphate buffered saline (termed “PBS (-)”, hereinafter) containing 100 μM of sodium hypochlorite as a carbonyl initiator was dissolved BSA to give a final concentration of 40 mg/mL, followed by keeping the resulting solution at 37° C. overnight to form carbonyl BSA, as a carbonyl protein model, used as a substance to cause skin yellowness, and removing the remaining sodium hypochlorite with “AMICON ULTRA 10K”, a product name of ultrafiltration membrane, commercialized by Merck Millipore Corporation, Tokyo, Japan, to obtain a carbonyl BSA. In this experiment, the carbonyl BSA was used as a carbonyl protein model.\nBased on Western blot analysis, the concentration of carbonyl BSA was assayed with dot blot method using a kit, “OxyBlot™ Protein Oxidation Detection Kit”, a product name of a kit for analyzing the oxidation level of protein, commercialized by Merck Millipore Corporation, Tokyo, Japan. The resulting measured values (emission intensity) were analyzed with “Image J”, an image processing software explored by National Institutes of Health (NIH), Maryland, USA. While, a PBS (-) solution (called “control”, hereinafter) containing carbonyl BSA, obtained similarly as in the above except for not using any of the test samples, was similarly measured as in the above, followed by determining the ratios of the measured values for those with the test samples against that of control. The results are in Table 1 and FIG. 1. […] The numerals in the table respectively show the ratios of carbonyl BSA when the test samples were respectively used alone against the measured value of carbonyl BSA, regarded as 1, for Control with no addition of any of the test samples.\nThe results are respectively in Tables 2 and 3 and FIGS. 2 and 3. The numerals with no symbol “%” in each table show ratios of carbonyl BSA obtained in such a manner of calculating the amount of carbonyl BSA for the system with either or both of the test samples that were respectively used alone or used in combination while regarding as one the amount of carbonyl BSA in each control system with no addition of any of the compositions containing glycosyl hesperetin or glycosyl naringenin.\nExcept for using any one of mannose, N-acetylglucosamine, “MALTOSE HHH” as a product name of maltose, raffinose, maltotetraose, and “TORNARE®” as a product name of glycosyl trehalose used as a cosmetic base material, which are shown in Table 4 below, in place of the composition containing glycosyl naringenin and the ascorbic acid 2-glucoside used in the above (4), and preparing it into a solution containing 0.1 w/v % of any of the above saccharide for use as a test solution for carbonyl protein reduction test, it was examined the carbonyl protein reduction action of the combination use the composition containing glycosyl hesperetin and any one of the above-identified saccharides similarly as in the above (4).\nThis experiment was conducted with organic acids and amino acids, which were focused on as compounds to be used with the composition containing glycosyl hesperetin.",
  "key": {"[1]": {"settings": "test—2 (Table 5), single use 0.1 w/v %, Control = 1"}, "[2]": {"settings": "test—2, combination use of composition containing glycosyl hesperetin (0.1 w/v %) and the labelled saccharide (0.1 w/v %)"}, "[3]": {"settings": "test—3, composition containing glycosyl hesperetin (0.1 w/v %) in combination with the labelled organic acid or amino acid (0.1 w/v % as headed)"}, "[4]": {"settings": "test—3, sole use of organic acid or amino acid (0.1 w/v % as headed), Control = 1"}, "[5]": {"settings": "sole use test, test sample 0.1 w/v %, carbonyl BSA:test sample 1:1 by mass, 37° C., 16 hours, Control (no addition) = 1"}},
  "data": [
    {"compound": "OC[C@H]1O[C@H](O[C@H]2[C@H](O)[C@@H](O)C(O)O[C@@H]2CO)[C@H](O)[C@@H](O)[C@@H]1O", "note": "(mixture of isomers) [Maltose, maltose]", "values": [
      {"measurement": "Ratio of carbonyl BSA", "setting": "[1]", "value": 0.18},
      {"measurement": "Ratio of carbonyl BSA", "setting": "[2]", "value": 0.11}
    ]},
    {"compound": "CC(O)C(=O)O", "note": "(stereo not drawn) [A, lactic acid]", "values": [
      {"measurement": "Ratio of carbonyl BSA", "setting": "[3]", "value": 0.35},
      {"measurement": "Ratio of carbonyl BSA", "setting": "[4]", "value": 0.89}
    ]},
    {"compound": "O=C(O)C(O)C(O)C(=O)O", "note": "(stereo not drawn) [B, tartaric acid]", "values": [
      {"measurement": "Ratio of carbonyl BSA", "setting": "[3]", "value": 0.51},
      {"measurement": "Ratio of carbonyl BSA", "setting": "[4]", "value": 0.95}
    ]},
    {"compound": "O=C(O)CC(O)(CC(=O)O)C(=O)O", "note": "[C, citric acid]", "values": [
      {"measurement": "Ratio of carbonyl BSA", "setting": "[3]", "value": 0.52},
      {"measurement": "Ratio of carbonyl BSA", "setting": "[4]", "value": 0.96}
    ]},
    {"compound": "COc1cc(/C=C/C(=O)O)ccc1O", "note": "[E, ferulic acid]", "values": [
      {"measurement": "Ratio of carbonyl BSA", "setting": "[3]", "value": 0.35},
      {"measurement": "Ratio of carbonyl BSA", "setting": "[4]", "value": 0.82}
    ]},
    {"compound": "O=C[C@H](O)[C@@H](O)[C@H](O)[C@H](O)C(=O)O", "note": "[F, glucuronic acid]", "values": [
      {"measurement": "Ratio of carbonyl BSA", "setting": "[3]", "value": 0.16},
      {"measurement": "Ratio of carbonyl BSA", "setting": "[4]", "value": 1.01}
    ]},
    {"compound": "O=C[C@H](O)[C@H]1OC(=O)[C@@H](O)[C@H]1O", "note": "[G, glucuronolactone]", "values": [
      {"measurement": "Ratio of carbonyl BSA", "setting": "[3]", "value": 0.49},
      {"measurement": "Ratio of carbonyl BSA", "setting": "[4]", "value": 1.07}
    ]},
    {"compound": "N[C@@H](CCC(=O)N[C@@H](CS)C(=O)NCC(=O)O)C(=O)O", "note": "[Glutathione (reduced form), reduced glutathione, reference compound]", "values": [
      {"measurement": "action of reducing carbonyl protein (carbonyl BSA)", "value": "no action of reducing carbonyl protein"},
      {"measurement": "Ratio of carbonyl BSA", "setting": "[5]", "value": 1.19}
    ]},
    {"compound": "CC(=O)O", "note": "[H, acetic acid]", "values": [
      {"measurement": "Ratio of carbonyl BSA", "setting": "[3]", "value": 0.25},
      {"measurement": "Ratio of carbonyl BSA", "setting": "[4]", "value": 1.08}
    ]},
    {"compound": "C/C=C/C=C/C(=O)O", "note": "[I, sorbic acid]", "values": [
      {"measurement": "Ratio of carbonyl BSA", "setting": "[3]", "value": 0.26},
      {"measurement": "Ratio of carbonyl BSA", "setting": "[4]", "value": 1.04}
    ]},
    {"compound": "O=C(O)c1ccccc1", "note": "[J, benzoic acid]", "values": [
      {"measurement": "Ratio of carbonyl BSA", "setting": "[3]", "value": 0.44},
      {"measurement": "Ratio of carbonyl BSA", "setting": "[4]", "value": 0.95}
    ]},
    {"compound": "NCC(=O)O", "note": "[K, glycine]", "values": [
      {"measurement": "Ratio of carbonyl BSA", "setting": "[3]", "value": 0.32},
      {"measurement": "Ratio of carbonyl BSA", "setting": "[4]", "value": 0.71}
    ]},
    {"compound": "N[C@@H](CCC(=O)[O-])C(=O)[O-].[Na+].[Na+]", "note": "[L, sodium glutamate]", "values": [
      {"measurement": "Ratio of carbonyl BSA", "setting": "[3]", "value": 0.28},
      {"measurement": "Ratio of carbonyl BSA", "setting": "[4]", "value": 0.77}
    ]},
    {"compound": "O=C1O[C@H]([C@@H](O)CO)C(O)=C1O[C@H]1O[C@H](CO)[C@@H](O)[C@H](O)[C@H]1O", "note": "[L-Ascorbic acid 2-glucoside, L-ascorbic acid 2-glucoside, reference compound]", "values": [
      {"measurement": "Ratio of carbonyl BSA", "setting": "[5]", "value": 0.73},
      {"measurement": "Ratio of carbonyl BSA", "setting": "test—1 (Tables 2, 3), single use, with no addition of the other ingredient, test sample 0.1 w/v %, Control = 1", "value": 0.70}
    ]},
    {"compound": "OC[C@H]1O[C@H](O[C@H]2[C@H](O)[C@@H](O)[C@@H](O[C@H]3[C@H](O)[C@@H](O)[C@@H](O[C@H]4[C@H](O)[C@@H](O)C(O)O[C@@H]4CO)O[C@@H]3CO)O[C@@H]2CO)[C@H](O)[C@@H](O)[C@@H]1O", "note": "(stereo partly drawn) [Maltotetraose, maltotetraose]", "values": [
      {"measurement": "Ratio of carbonyl BSA", "setting": "[1]", "value": 0.71},
      {"measurement": "Ratio of carbonyl BSA", "setting": "[2]", "value": 0.13}
    ]},
    {"compound": "CC(=O)N[C@H]1C(O)O[C@H](CO)[C@@H](O)[C@@H]1O", "note": "(stereo partly drawn) [N-Acetyl glucosamine]", "values": [
      {"measurement": "Ratio of carbonyl BSA", "setting": "[1]", "value": 0.48},
      {"measurement": "Ratio of carbonyl BSA", "setting": "[2]", "value": 0.79}
    ]},
    {"compound": "NC(=O)c1cccnc1", "note": "[Niacinamide, niacinamide, reference compound]", "values": [
      {"measurement": "action of reducing carbonyl protein (carbonyl BSA)", "value": "no action of reducing carbonyl protein"},
      {"measurement": "Ratio of carbonyl BSA", "setting": "[5]", "value": 1.05}
    ]},
    {"compound": "OC[C@H]1O[C@H](OC[C@H]2O[C@H](O[C@]3(CO)O[C@H](CO)[C@@H](O)[C@@H]3O)[C@H](O)[C@@H](O)[C@@H]2O)[C@H](O)[C@@H](O)[C@H]1O", "note": "[Raffinose, raffinose]", "values": [
      {"measurement": "Ratio of carbonyl BSA", "setting": "[1]", "value": 0.23},
      {"measurement": "Ratio of carbonyl BSA", "setting": "[2]", "value": 0.54}
    ]}
  ]
}
